The test system of series [1] is C57BL/6 WT mice treated with tunicamycin. Nature of the series: Tunicamycin-induced hepatic and renal damage in WT mice in the presence and absence of PPG. Format: in vivo, mouse. An excerpt: In order to investigate the effects of elevated cystathionine upon the response to ER stress, wild type mice (n=6) were exposed to a single sub-lethal intraperitoneal injection of tunicamycin in the presence and absence of the CGL inactivating compound PPG. WT mice were randomly assigned to one of four treatment groups (n=6 for each group): 1) control, IP injected with PBS; 2) I.P. injection with PPG; 3) single I.P […] tunicamycin and 4) tunicamycin+PPG. In groups 2 and 4, PPG treatment was maintained by daily injection until sacrifice at three days post vehicle/tunicamycin injection. After the completion of this treatment regime, all mice were anaesthetized (isoflourane/oxygen) and sacrificed by decapitation, and blood samples were collected for plasma analysis. Livers and kidneys were removed, weighed and then samples were either immersion-fixed overnight in 4% paraformaldehyde in PBS (pH 7.3) for subsequent histological analysis or were snap frozen in liquid nitrogen and examined for morphological, histological and biochemical analyses.
Propensity for hepatic steatosis was examined in HO and wild type control mice using a methionine-choline deficient amino acid defined and iron supplemented diet (#518810 Dyets Inc., Bethlehem, Pa.)) and an isocaloric amino acid defined Lombardi choline sufficient diet with methionine control diet (518754, Dyets Inc., Bethlehem, Pa.) for 19 days as described previously (7). Experimental hypercystathionemia was induced by IP injection of the CGL inactivator PPG (50 mg·day-1·kg-1) as described previously (8). ER stress was induced in mice by a single IP injection with tunicamycin at 0.5 mg/kg body weight (volume <=1.0 ml). Control mice were sham treated by injection with an equal volume of PBS (9,10).
Tissues were immersion-fixed overnight in 4% paraformaldehyde in PBS (pH 7.3). Paraffin embedded sections (5 μm) were stained for examination with hematoxylin and eosin (H and E). Cells undergoing apoptosis were identified by labeling their DNA 3′-OH nick ends using a variant of terminal deoxynucleotidyl transferase-mediated dUTP nick end-labeling (TUNEL) staining. Staining was performed according to the manufacturer's instruction with ApopTag® Peroxidase in Situ Apoptosis Detection Kit (Millipore, Billerica, Mass.). Tissue sections were deparaffinized with xylene and washed in succession with different concentrations of ethanol (absolute, 95% and 70%). Tissue sections were then digested with proteinase K (20 μg/ml) for 15 min. Endogenous peroxidase activity was quenched with 3% H2O2 in PBS for 5 min. The slides were immersed in terminal deoxynucleotidyl transferase (TdT) buffer containing digoxigenin-labeled nucleotides at 37° C. for 1 h. After washing, anti-digoxigenin-peroxidase was added to cover the slides and incubated in a humid chamber at room temperature for 30 min. After washing with PBS, the slides were stained with diaminobenzidine and then counterstained with 1% methyl green. Light microscopy was performed to quantify the apoptotic cells, by counting cells in ten randomly selected fields (×100 magnification) of each slide with the following formula: number of apoptotic cells/total number of cells counted×100.
A party unaware of the animal's genotype or treatment group performed both histological analysis, of stained slides and TUNEL staining. Liver injury was assessed by determining plasma levels of alanine aminotransferase (ALT) activity using an enzyme-coupled assay with lactic dehydrogenase (LDH) as described previously (12) Liver lipid was extracted using the procedure of Bligh and Dyer (13) and after evaporation of the organic solvent, the triacylglycerol content of each sample was measured in duplicate using an enzymatic method (Sigma-Aldrich).

Series [2] has as its system KDEL containing chaperones and GADD153. Nature of the series: Immunohistochemical analysis of unfolded protein response in liver and kidney. The class given is in vivo, mouse. The method, then:
While it is not necessary to understand the mechanism of action, it is believed cystathionine may protect against ER stress induced cell injury by increasing the induction of molecular chaperones like Grp78 or by inhibiting the induction of GADD153. In order to investigate the mechanism by which cystathionine is protecting against ER stress induced tissue injury, an immunohistochemical analysis of liver and kidney tissues samples from the experimental groups described above was performed. […] Strong induction of KDEL containing proteins and GADD153 by tunicamycin treatment in both liver and kidneys of the tunicamycin groups was observed (FIG. 8, Panel B).
Prolonged perturbation of the ER is a powerful inducer of the C/EBP family member GADD153 (also known as CHOP) that plays a key role in the induction of programmed cell death by ER stress (10). Previous work has shown that GRP78 over-expression in Chinese hamster ovary cells attenuates both the ER stress-signal and the cell death that is observed in response to calcium ionophores (22) and blocking the expression of GRP78 by means of antisense constructs increase the lethality of agents that promote ER stress (23). Within this context, it is conceivable that cystathionine could protect against ER stress induced cell injury by increasing the induction of molecular chaperones like Grp78 or by inhibiting the induction of GADD153. […]

The mark [3] stands for this setting: tunicamycin 0.5 mg/kg single IP + daily PPG, three days.

The structures appear in SMILES notation. Entries after “also recorded” stand apart in the source; their conditions may differ.

For the molecule `C#CCC(N)C(=O)O` (racemic) [PPG, D,L-2-amino-4-pentynoic acid], in series [1] (PPG alone control group), the “apoptosis (Tunel staining)” value is given as “No apoptosis was observed”; the “morphological alteration (histology)” value is reported as “no significant morphological alteration”; the “size and appearance of livers and kidneys” value is “normal in size and appearance”. Further, in series [1] (setting [3]), the “liver weight vs control groups” value is recorded as “did not differ significantly from the control groups”, the “plasma ALT levels vs control groups” value is on record as “did not differ significantly from the control groups” and the “triglyceride levels vs control groups” value is recorded as “did not differ significantly from the control groups”. Moreover, in series [1] (tunicamycin + PPG, three days), the “gross appearance of livers and kidneys” value is on record as “appeared ostensibly normal; also recorded: this effect was not apparent”; the “tunicamycin-induced morphological changes in liver and kidney (H and E histology)” value is on record as “effectively ablated; also recorded: significantly attenuated”. In addition, in series [1] (tunicamycin treated mice pretreated with PPG), the “apoptotic cells in kidney (Tunel staining)” value was “No apoptotic cells were observed”. Further, in series [2] (PPG treatment alone), the “expression of KDEL signature proteins” value was “did not induce expression”. Further, in series [2] (tunicamycin + PPG, liver and kidney), the “level of induction of KDEL containing chaperones and GADD153 by tunicamycin” value is on record as “did not appear to affect the level of induction”.
